Source: EPA's ToxRefDB 2

Columns and labels:
mouse [1] = details: Subchronic oral toxicity in rodents, cd1, Gavage/Intubation, dose end: 13 week, group: systemic, systemic / clinical chemistry / alanine aminotransferase (alt/sgpt) / alanine aminotransferase (alt/sgpt) + systemic / clinical chemistry / …
rat [2] = details: Chronic toxicity, sprague dawley, Oral, Gavage/Intubation, dose end: 6 month, group: systemic
rat [3] = details: Sub-acute repeat dose toxicity, sprague dawley, Oral, Gavage/Intubation, dose end: 28 day, group: systemic
rat [4] = details: Chronic toxicity; sprague dawley; Oral; Gavage/Intubation; dose end: 6 month; group: systemic; systemic / clinical chemistry / alanine aminotransferase (alt/sgpt) / alanine aminotransferase (alt/sgpt) + systemic / clinical chemistry / …
dog [5] = details: Chronic toxicity; beagle; Oral; Capsule; dose end: 6 month; group: systemic; systemic / clinical chemistry / potassium / potassium + systemic / in life observation / body weight / body weight + systemic / in life …
mouse [6] = details: Sub-acute repeat dose toxicity, cd1, Oral, Gavage/Intubation, dose end: 4 week, group: systemic
rat [7] = details: Fertility (Segment I), sprague dawley, Oral, Gavage/Intubation, dose end: 7 GD
rabbit [8] = details: Prenatal developmental toxicity study, new zealand white, Oral, Gavage/Intubation, dose end: 19 GD
rabbit [9] = details: Prenatal developmental toxicity study; new zealand white; Oral; Gavage/Intubation; dose end: 19 GD; group: maternal; systemic / in life observation / body weight / body weight gain + systemic / in life observation / clinical signs / anogenital staining + …
dog [10] = details: Chronic toxicity, beagle, Oral, Gavage/Intubation, dose end: 274 day, group: systemic
rat [11] = details: Sub-acute repeat dose toxicity, Oral, Gavage/Intubation, dose end: 7 day, group: systemic
rat [12] = details: Sub-acute repeat dose toxicity, Oral, Gavage/Intubation, dose end: 7 day, group: systemic; remark: listed apart in the source
dog [13] = details: Sub-acute repeat dose toxicity, beagle, Oral, Gavage/Intubation, dose end: 29 day, group: systemic
dog [14] = details: Sub-acute repeat dose toxicity; beagle; Oral; Gavage/Intubation; dose end: 14 day; group: systemic; systemic / in life observation / clinical signs / emesis + systemic / in life observation / clinical signs / salivation + systemic / in life…
mouse [15] = details: Fertility (Segment I), Oral, Gavage/Intubation, dose end: 1 generation
rat [16] = details: Sub-acute repeat dose toxicity; Oral; Gavage/Intubation; dose end: 7 day; group: systemic; systemic / organ weight / adrenal gland / absolute + systemic / organ weight / liver / absolute + systemic / pathology microscopic / kidney…
mouse [17] = details: Sub-acute repeat dose toxicity; Oral; Feed; dose end: 14 day; group: systemic; systemic / in life observation / clinical signs / [other] + systemic / in life observation / clinical signs / anogenital staining + systemic…
rat [18] = details: Sub-acute repeat dose toxicity, Oral, Gavage/Intubation, dose end: 14 day, group: systemic
[19] = systemic / clinical chemistry / albumin / albumin + systemic / clinical chemistry / alkaline phosphatase (alp/alk) / alkaline phosphatase (…
[20] = systemic / clinical chemistry / albumin / albumin + systemic / clinical chemistry / aspartate aminotransferase (ast/sgot) / aspartate …
[21] = systemic / clinical chemistry / alanine aminotransferase (alt/sgpt) / alanine aminotransferase (alt/sgpt) + systemic / clinical chemistry / …
[22] = systemic / clinical chemistry / alanine aminotransferase (alt/sgpt) / alanine aminotransferase (alt/sgpt) + systemic / in life observation…
[23] = systemic / in life observation / clinical signs / alopecia + systemic / in life observation / clinical signs / external lesion(s) + systemic…
[24] = systemic / in life observation / clinical signs / scabbing + systemic / in life observation / body weight / body weight + systemic / in life…
[25] = group: maternal, reproductive / reproductive performance / estrous cycle / abnormal + reproductive / reproductive performance / estrous cycle / corpora lutea…
[26] = group: maternal, reproductive / reproductive performance / implantations / implantations
[27] = group: parental, systemic / in life observation / body weight / body weight gain + systemic / in life observation / clinical signs / abnormal respiratory …
[28] = group: developmental, systemic / in life observation / body weight / fetal weight
[29] = group: maternal, systemic / in life observation / body weight / body weight gain + systemic / in life observation / clinical signs / defecation + systemic / …
[30] = systemic / in life observation / clinical signs / defecation (diarrhea) + systemic / in life observation / clinical signs / soft stools
[31] = systemic / in life observation / clinical signs / defecation (diarrhea) + systemic / in life observation / clinical signs / soft stools + …
[32] = systemic / pathology microscopic / adrenal gland / hypertrophy + systemic / pathology microscopic / kidney / regeneration + systemic / …
[33] = systemic / clinical chemistry / cholesterol / cholesterol + systemic / clinical chemistry / protein / protein + systemic / hematology / …
[34] = systemic / clinical chemistry / cholesterol / cholesterol + systemic / hematology / eosinophils / eosinophils + systemic / clinical …
[35] = systemic / in life observation / clinical signs / arrhythmia + systemic / organ weight / testes / absolute + systemic / organ weight / …
[36] = systemic / in life observation / food consumption / food consumption + systemic / pathology microscopic / liver / depletion glycogen + …
[37] = group: maternal, reproductive / reproductive performance / mating / mating + reproductive / reproductive performance / precoital interval / precoital …
[38] = group: parental, systemic / in life observation / body weight / body weight gain
[39] = systemic / clinical chemistry / cytochrome p450, nos / cytochrome p450, nos + systemic / clinical chemistry / glucose / glucose + systemic…
[40] = systemic / clinical chemistry / cytochrome p450, nos / cytochrome p450, nos + systemic / in life observation / clinical signs / lacrimation …

CCc1c(C(=O)NN2CCCCC2)nn(-c2ccc(Cl)cc2Cl)c1-c1ccc(Br)cc1 [Surinabant]
LEL (mouse [1]): 100 mg/kg/day | LOAEL (mouse [1]): > 1000 mg/kg/day | NEL (mouse [1]): < 100 mg/kg/day | NOAEL (mouse [1]): ≥ 1000 mg/kg/day | LOAEL (rat [2]; [19]): > 100 mg/kg/day | NOAEL (rat [2]; [19]): ≥ 100 mg/kg/day | LEL (rat [2]; [20]): 10 mg/kg/day | NEL (rat [2]; [20]): < 10 mg/kg/day | LOAEL (rat [3]; [21]): > 300 mg/kg/day | NOAEL (rat [3]; [21]): ≥ 300 mg/kg/day | LEL (rat [3]; [22]): 30 mg/kg/day | NEL (rat [3]; [22]): < 30 mg/kg/day | LEL (rat [4]): 30 mg/kg/day | LOAEL (rat [4]): > 60 mg/kg/day | NEL (rat [4]): < 30 mg/kg/day | NOAEL (rat [4]): ≥ 60 mg/kg/day | LEL (dog [5]): 1.5 mg/kg/day | LOAEL (dog [5]): 1.5 mg/kg/day | NEL (dog [5]): < 1.5 mg/kg/day | NOAEL (dog [5]): < 1.5 mg/kg/day | LOAEL (mouse [6]; [23]): > 4000 mg/kg/day | NOAEL (mouse [6]; [23]): ≥ 4000 mg/kg/day | LEL (mouse [6]; [24]): 1000 mg/kg/day | NEL (mouse [6]; [24]): < 1000 mg/kg/day | LOAEL (rat [7]; [25]): 50 mg/kg/day | NOAEL (rat [7]; [25]): 10 mg/kg/day | LEL (rat [7]; [26]): 10 mg/kg/day | NEL (rat [7]; [26]): < 10 mg/kg/day | LEL (rat [7]; [27]): 10 mg/kg/day | LOAEL (rat [7]; [27]): > 100 mg/kg/day | NEL (rat [7]; [27]): < 10 mg/kg/day | NOAEL (rat [7]; [27]): ≥ 100 mg/kg/day | LEL (rabbit [8]; [28]): 1 mg/kg/day | LOAEL (rabbit [8]; [28]): > 20 mg/kg/day | NEL (rabbit [8]; [28]): < 1 mg/kg/day | NOAEL (rabbit [8]; [28]): ≥ 20 mg/kg/day | LEL (rabbit [8]; [29]): 1 mg/kg/day | LOAEL (rabbit [8]; [29]): > 20 mg/kg/day | NEL (rabbit [8]; [29]): < 1 mg/kg/day | NOAEL (rabbit [8]; [29]): ≥ 20 mg/kg/day | LEL (rabbit [9]): 0.5 mg/kg/day | LOAEL (rabbit [9]): 2 mg/kg/day | NEL (rabbit [9]): < 0.5 mg/kg/day | NOAEL (rabbit [9]): 0.5 mg/kg/day

CCc1nn(CCO)c(CC)c1Oc1cc(C#N)cc(C#N)c1 [Lersivirine]
LEL (dog [10]; [30]): 5 mg/kg/day | NEL (dog [10]; [30]): < 5 mg/kg/day | LOAEL (dog [10]; [31]): > 45 mg/kg/day | NOAEL (dog [10]; [31]): ≥ 45 mg/kg/day | LOAEL (rat [11]; [32]): > 150 mg/kg/day | NOAEL (rat [11]; [32]): ≥ 150 mg/kg/day | NEL (rat [11]; systemic / pathology microscopic / kidney / regeneration + systemic / pathology microscopic / adrenal gland / vacuolization + systemic / …): < 35 mg/kg/day | LEL (rat [12]; [33]): 70 mg/kg/day | NEL (rat [12]; [33]): < 70 mg/kg/day | LOAEL (rat [12]; [34]): > 1000 mg/kg/day | NOAEL (rat [12]; [34]): ≥ 1000 mg/kg/day | LEL (dog [13]; [35]): 10 mg/kg/day | NEL (dog [13]; [35]): < 10 mg/kg/day | LOAEL (dog [13]; [36]): > 50 mg/kg/day | NOAEL (dog [13]; [36]): ≥ 50 mg/kg/day | LEL (dog [14]): 5 mg/kg/day | LOAEL (dog [14]): > 150 mg/kg/day | NEL (dog [14]): < 5 mg/kg/day | NOAEL (dog [14]): ≥ 150 mg/kg/day | LEL (mouse [15]; [37]): 700 mg/kg/day | LOAEL (mouse [15]; [37]): > 700 mg/kg/day | NEL (mouse [15]; [37]): 200 mg/kg/day | NOAEL (mouse [15]; [37]): ≥ 700 mg/kg/day | LEL (mouse [15]; [38]): 200 mg/kg/day | LOAEL (mouse [15]; [38]): > 700 mg/kg/day | NEL (mouse [15]; [38]): 70 mg/kg/day | NOAEL (mouse [15]; [38]): ≥ 700 mg/kg/day | LOAEL (rat [16]): > 35 mg/kg/day | NEL (rat [16]): < 35 mg/kg/day | NOAEL (rat [16]): ≥ 35 mg/kg/day | LOAEL (mouse [17]): > 3000 mg/kg/day | NEL (mouse [17]): 750 mg/kg/day | NOAEL (mouse [17]): ≥ 3000 mg/kg/day | LOAEL (rat [18]; [39]): > 300 mg/kg/day | NOAEL (rat [18]; [39]): ≥ 300 mg/kg/day | LEL (rat [18]; [40]): 20 mg/kg/day | NEL (rat [18]; [40]): < 20 mg/kg/day
